Laboratory results from the NIST ThermoML archive (doi:10.1021/acs.jced.7b00694).

Assay: xn = mol fraction of the nth substance listed
Conditions: Gas, Buoyancy - hydrostatic balance with magnetic suspension - one sinker

[HH] [hydrogen] + N#N
Conditions | mass density [kg/m3]
274.99 K, 14000 kPa, x2 = 0.95 | 162.308
274.99 K, 14998 kPa, x2 = 0.5001 | 91.878
274.99 K, 15002 kPa, x2 = 0.95 | 173.076
274.99 K, 16011 kPa, x2 = 0.95 | 183.72
274.99 K, 17006 kPa, x2 = 0.95 | 194.006
275 K, 13999 kPa, x2 = 0.9 | 153.123
275 K, 15005 kPa, x2 = 0.9 | 163.298
275 K, 15997 kPa, x2 = 0.5001 | 97.397
275 K, 16004 kPa, x2 = 0.9 | 173.22
275 K, 17000 kPa, x2 = 0.5001 | 102.851
275 K, 17005 kPa, x2 = 0.9 | 182.969
275 K, 17996 kPa, x2 = 0.5001 | 108.187
275 K, 18001 kPa, x2 = 0.95 | 204.074
275 K, 18013 kPa, x2 = 0.9 | 192.591
275 K, 19000 kPa, x2 = 0.5001 | 113.476
275 K, 19012 kPa, x2 = 0.9 | 201.918
275 K, 19017 kPa, x2 = 0.95 | 214.131
275 K, 19574 kPa, x2 = 0.5001 | 116.461
275 K, 19891 kPa, x2 = 0.9 | 209.964
275 K, 20152 kPa, x2 = 0.95 | 225.084
299.93 K, 997 kPa, x2 = 0.95 | 10.683
299.93 K, 998 kPa, x2 = 0.9 | 10.171
299.93 K, 1999 kPa, x2 = 0.9 | 20.375
299.93 K, 2984 kPa, x2 = 0.9 | 30.399
299.93 K, 3997 kPa, x2 = 0.9 | 40.678
299.93 K, 4997 kPa, x2 = 0.9 | 50.784
299.93 K, 5997 kPa, x2 = 0.9 | 60.838
299.93 K, 6998 kPa, x2 = 0.9 | 70.842
299.93 K, 7998 kPa, x2 = 0.9 | 80.755
299.93 K, 8998 kPa, x2 = 0.9 | 90.589
299.93 K, 9998 kPa, x2 = 0.9 | 100.316
299.93 K, 10998 kPa, x2 = 0.9 | 109.939
299.93 K, 11999 kPa, x2 = 0.9 | 119.448
299.93 K, 12999 kPa, x2 = 0.9 | 128.823
299.93 K, 14000 kPa, x2 = 0.9 | 138.079
299.93 K, 14998 kPa, x2 = 0.9 | 147.162
299.93 K, 16001 kPa, x2 = 0.9 | 156.149
299.93 K, 17004 kPa, x2 = 0.9 | 164.981
299.93 K, 18004 kPa, x2 = 0.9 | 173.629
299.93 K, 19002 kPa, x2 = 0.9 | 182.11
299.93 K, 19557 kPa, x2 = 0.9 | 186.761
299.94 K, 998 kPa, x2 = 0.5001 | 5.984
299.94 K, 1998 kPa, x2 = 0.5001 | 11.937
299.94 K, 1998 kPa, x2 = 0.95 | 21.43
299.94 K, 2984 kPa, x2 = 0.95 | 32.013
299.94 K, 2999 kPa, x2 = 0.5001 | 17.846
299.94 K, 3997 kPa, x2 = 0.95 | 42.862
299.94 K, 3998 kPa, x2 = 0.5001 | 23.691
299.94 K, 4997 kPa, x2 = 0.95 | 53.549
299.94 K, 4998 kPa, x2 = 0.5001 | 29.485
299.94 K, 5998 kPa, x2 = 0.5001 | 35.223
299.94 K, 5998 kPa, x2 = 0.95 | 64.189
299.94 K, 6997 kPa, x2 = 0.5001 | 40.897
299.94 K, 6999 kPa, x2 = 0.95 | 74.769
299.94 K, 7997 kPa, x2 = 0.5001 | 46.51
299.94 K, 7999 kPa, x2 = 0.95 | 85.271
299.94 K, 8996 kPa, x2 = 0.5001 | 52.057
299.94 K, 9000 kPa, x2 = 0.95 | 95.695
299.94 K, 9998 kPa, x2 = 0.5001 | 57.555
299.94 K, 10000 kPa, x2 = 0.95 | 106.004
299.94 K, 10997 kPa, x2 = 0.5001 | 62.968
299.94 K, 10999 kPa, x2 = 0.95 | 116.189
299.94 K, 11998 kPa, x2 = 0.5001 | 68.317
299.94 K, 12000 kPa, x2 = 0.95 | 126.269
299.94 K, 12994 kPa, x2 = 0.5001 | 73.577
299.94 K, 13002 kPa, x2 = 0.95 | 136.232
299.94 K, 13996 kPa, x2 = 0.5001 | 78.8
299.94 K, 14000 kPa, x2 = 0.95 | 146.008
299.94 K, 14998 kPa, x2 = 0.5001 | 83.948
299.94 K, 14999 kPa, x2 = 0.95 | 155.65
299.94 K, 15992 kPa, x2 = 0.5001 | 88.984
299.94 K, 16000 kPa, x2 = 0.95 | 165.148
299.94 K, 16992 kPa, x2 = 0.5001 | 93.982
299.94 K, 17005 kPa, x2 = 0.95 | 174.51
299.94 K, 17997 kPa, x2 = 0.5001 | 98.934
299.94 K, 18000 kPa, x2 = 0.95 | 183.626
299.94 K, 18998 kPa, x2 = 0.5001 | 103.792
299.94 K, 19003 kPa, x2 = 0.95 | 192.638
299.94 K, 19854 kPa, x2 = 0.5001 | 107.886
299.94 K, 19889 kPa, x2 = 0.95 | 200.449
324.94 K, 12002 kPa, x2 = 0.95 | 115.15
324.94 K, 14997 kPa, x2 = 0.95 | 141.813
324.94 K, 15998 kPa, x2 = 0.95 | 150.466
324.94 K, 16993 kPa, x2 = 0.95 | 158.937
324.94 K, 17986 kPa, x2 = 0.95 | 167.256
324.94 K, 19001 kPa, x2 = 0.95 | 175.603
324.94 K, 19731 kPa, x2 = 0.9 | 171.908
324.94 K, 19880 kPa, x2 = 0.95 | 182.728
324.95 K, 998 kPa, x2 = 0.5001 | 5.527
324.95 K, 998 kPa, x2 = 0.9 | 9.371
324.95 K, 998 kPa, x2 = 0.95 | 9.855
324.95 K, 1998 kPa, x2 = 0.5001 | 11.018
324.95 K, 1998 kPa, x2 = 0.95 | 19.717
324.95 K, 1999 kPa, x2 = 0.9 | 18.75
324.95 K, 2983 kPa, x2 = 0.9 | 27.94
324.95 K, 2984 kPa, x2 = 0.95 | 29.414
324.95 K, 2996 kPa, x2 = 0.5001 | 16.446
324.95 K, 3997 kPa, x2 = 0.95 | 39.338
324.95 K, 3999 kPa, x2 = 0.5001 | 21.856
324.95 K, 3999 kPa, x2 = 0.9 | 37.374
